Test [1] deals with cytokine production in whole blood stimulated with Dynabeads Human T-Activator CD3/CD28. In words: Whole blood assay, plasma cytokines after CD3/CD28 stimulation (MSD multiplex). The format is cell-based. The following applies: 0.3 μM, 1 μM, 19 hours at 37° C., n=6. The protocol:
An in vitro study was conducted to investigate the impact of Compound 1 on eosinophil and neutrophil activation and cytokine production that play a role in contributing to eosinophilic and noneosinophilic (neutrophilic) asthma endotypes. Whole blood from healthy volunteers was unstimulated (Unstim) or stimulated with Dynabeads™ Human T-Activator CD3/CD28 in the absence (0) or presence (0.3 μM, 1 μM) of Compound 1 for a total of 19 hours at 37° C. Whole blood was analyzed for cell surface activation marker CD69 gated for eosinophils or neutrophils by flow cytometry (n=12). Plasma was isolated from the whole blood and analyzed for various cytokines using a MSD multiplex platform (n=6). […] Because Compound 1 inhibits the production of Th2/Th1/Th17 cytokines and reduces activation of eosinophils and neutrophils Compound 1 provides an endotype-agnostic means to treat severe asthma.
FIGS. 2-4 depict the effect of Compound 1 on cytokine levels in a whole blood assay. Plasma was isolated from whole blood samples and analyzed for Th2 cytokines (FIGS. 2A-C: IL-4, IL-5, and IL-13 respectively); Th1/Th17 cytokines (FIGS. 3A-C: IFNγ, TNFα, and IL-22 respectively), and other inflammatory cytokines/chemokines (FIGS. 4A-B: CXCL10 and IL-6 respectively). Each symbol represents a different donor. Values from individual donors are shown, along with mean value for each treatment. Data was plotted in GraphPad PRISM v.9.3.1 and analyzed by a paired t test (*:p<0.05; **:p≤0.01; ***:p≤0.001).

For test [2], the system named is HDM-induced severe asthma model. In words: House dust mite (HDM)-induced severe asthma model, lung mechanics after methacholine challenge. It counts as in vivo, female BALB/c mice. The protocol:
(§1) In vivo studies were conducted to test Compound 1 in two models of severe asthma. The first study conducted included an experimental house dust mite (HDM)-induced severe asthma model representative of both Th2/eosinophilic and Th1/Th17/neutrophilic asthma endotypes. The second study conducted included an ovalbumin (OVA) model of acute asthma which more closely represents a Th2/eosinophilic asthma endotype. For each model, fifty-eight female BALB/c mice were randomly and prospectively assigned to six groups, one group of six, one group of twelve, and four groups of ten animals each (see Table 3).
HDM model: On Day 0, animals in Groups 2-6 were sensitized with 50 μg of HDM in an emulsion with 150 μg of complete Freund's adjuvant (CFA) in a 100 μL volume by subcutaneous injection (SC). Animals in Groups 2-6 were challenged on Day 14 with 50 μg HDM in 40 μL saline via intra-nasal instillation (IN). Group 1 served as the naïve control group. On Days 12, 13, 14, and 15, animals in Groups 2-6 were dosed according to Table 3. […] On Day 16, animals underwent methacholine challenge with lung mechanics measurements using a flexi Vent mechanical ventilator.
(§2) . Elasticity of the lung (H) shown in FIGS. 6A-B and airway resistance in small airways and alveoli (G) shown in FIGS. 7A-B were measured using a flexiVent mechanical ventilator following challenge with 25 mg/mL methacholine. Group numbers represent the following treatments: 1) naïve; 2) diseased, vehicle treated; 3) diseased, Compound 1 (1 mg/kg); […]; and 6) diseased, positive control. Data are presented as mean±SEM. n=6-12 per group. Statistical significance between groups was determined by one-way ANOVA with Dunnett's multiple comparisons test used to compare all groups to the vehicle-control group. (*:p<0.05; **:p≤0.01).

For test [3], the system named is OVA model of acute asthma. Briefly: Ovalbumin (OVA) model of acute asthma, lung mechanics after methacholine challenge. It counts as in vivo, female BALB/c mice. The protocol:
as §1
OVA model: On Day 0 and Day 7, animals in Groups 2-6 were sensitized with 20 μg of OVA and 1.5 mg Alum in 100 μL volume by intraperitoneal injection (IP). Animals in Groups 2-6 were challenged on Day 13, 14, and 15 with 20 μg OVA in 50 μL PBS via intra-nasal instillation (IN). Group I served as the naïve control group. On Days 12, 13, 14, and 15, animals in Groups 2-6 were dosed according to Table 3. On Day 16, animals underwent methacholine challenge with lung mechanics measurements using a flexiVent mechanical ventilator.
as §2

Test [4] has as its target human JAK1 (a.a. 837-1142) (Homo sapiens, UniProt P23458). In words: In vitro JAK kinase assay (HTRF), JAK1. The format is biochemical. To be noted: 1 mM ATP. On the technique in general: In TR-FRET formats the signal depends on donor and acceptor labels being close together.
Experimental: (§3) The catalytic activity of JAK1, JAK2 or JAK3 was assayed by measuring the phosphorylation of a biotinylated peptide. The phosphorylated peptide was detected by homogenous time resolved fluorescence (HTRF). […] Reactions were carried out at room temperature for 1 hour and then stopped with 20 μL 45 mM EDTA, 300 nM SA-APC, 6 nM Eu-Py20 in assay buffer (Perkin Elmer, Boston, MA). Binding to the Europium labeled antibody took place for 40 minutes and HTRF signal was measured on a Fusion plate reader (Perkin Elmer, Boston, MA).
In the next test the target is JAK2 (a.a. 828-1132) (Homo sapiens (Human), UniProt O60674). In words: In vitro JAK kinase assay (HTRF), JAK2 versus JAK1. The format is biochemical. The following applies: IC50 ratio, 1 mM ATP.
JAK2 (a.a. 828-1132), sequence (O60674 828-1132): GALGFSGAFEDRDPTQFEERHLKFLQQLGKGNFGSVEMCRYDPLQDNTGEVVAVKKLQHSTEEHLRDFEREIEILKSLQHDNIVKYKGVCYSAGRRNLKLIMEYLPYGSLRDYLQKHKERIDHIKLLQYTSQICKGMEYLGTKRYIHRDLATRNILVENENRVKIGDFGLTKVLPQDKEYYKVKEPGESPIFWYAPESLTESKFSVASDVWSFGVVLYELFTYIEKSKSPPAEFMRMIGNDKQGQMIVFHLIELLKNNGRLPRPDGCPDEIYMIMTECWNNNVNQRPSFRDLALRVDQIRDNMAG

Experimental for JAK2 (a.a. 828-1132): as §3

As for `Cc1n[nH]c(C)c1-c1cnn(C2(CC#N)CN(c3cc(F)c(C(=O)N[C@@H](C)C(F)(F)F)cc3F)C2)c1` [Compound 1, 4-[3-(cyanomethyl)-3-(3′,5′-dimethyl-1H,1′H-4,4′-bipyrazol-1-yl)azetidin-1-yl]-2,5-difluoro-N-[(1S)-2,2,2-trifluoro-1-methylethyl]benzamide], in test [1], the “Th1 and Th17/Th22 cytokines (IFNγ, TNFα, IL-22)” value was “reduced Th1 and Th17/Th22 cytokines induced by T-cell activation in a concentration-dependent manner”; the “inflammatory cytokines/chemokines (CXCL10, IL-6)” value is listed as “reduced inflammatory cytokines/chemokines induced by T cell activation in a concentration-dependent manner”; the “levels of Th2 cytokines (IL-4, IL-5, IL-13)” value is on record as “reduced the levels of Th2 cytokines induced by T-cell activation in a concentration-dependent manner”. In addition, in test [2] (25 mg/mL methacholine), the “elasticity of the lung (H)” value is given as “decreases”; the “resistance in small airways and alveoli (G)” value (“resistance” for short) is “decreases”. The “airway measures (Rrs, Ers, G, H), difference between groups” value in test [2] (10 and 30 mg/kg, Days 12-15, methacholine challenge Day 16) is given as “no significant differences”. Moreover, in test [3] (10 mg/kg dose), the “elasticity of the lung (H)” value is reported as “significant reduction”; the “resistance” value was “significant reduction”. Also, in test [3] (25 mg/mL methacholine), the “elasticity of the lung (H)” value is “reversed the elevation”; the “resistance” value was “reversed the elevation”.
With `N#CCC1(n2cc(-c3ncnc4[nH]ccc34)cn2)CN([C@H]2CC[C@@H](Oc3cc(CN4CC[C@@H](O)C4)cc(C(F)(F)F)n3)CC2)C1` [Compound 21, {1-(cis-4-{[4-{[(3R)-3-hydroxypyrrolidin-1-yl]methyl}-6-(trifluoromethyl)pyridin-2-yl]oxy}cyclohexyl)-3-[4-(7H-pyrrolo[2,3-d]pyrimidin-4-yl)-1H-pyrazol-1-yl]azetidin-3-yl}acetonitrile], the IC50 in test [4] was less than 10 nM. On JAK2 (a.a. 828-1132), the JAK2/JAK1 is more than 10.
For `N#CCC1(n2cc(-c3ncnc4[nH]ccc34)cn2)CN([C@H]2CC[C@@H](Oc3cc(CN4CC[C@H](O)C4)cc(C(F)(F)F)n3)CC2)C1` [Compound 22, {1-(cis-4-{[4-{[(3S)-3-hydroxypyrrolidin-1-yl]methyl}-6-(trifluoromethyl)pyridin-2-yl]oxy}cyclohexyl)-3-[4-(7H-pyrrolo[2,3-d]pyrimidin-4-yl)-1H-pyrazol-1-yl]azetidin-3-yl}acetonitrile] the same measures were less than 10 nM and more than 10.
Consider `C[C@@H](CO)NCc1cc(OC2CCN([C@H]3C[C@](CC#N)(n4cc(-c5ncnc6[nH]ccc56)cn4)C3)CC2)nc(C(F)(F)F)c1` [Compound 23, {trans-3-(4-{[4-({[(1S)-2-hydroxy-1-methylethyl]amino}methyl)-6-(trifluoromethyl)pyridin-2-yl]oxy}piperidin-1-yl)-1-[4-(7H-pyrrolo[2,3-d]pyrimidin-4-yl)-1H-pyrazol-1-yl]cyclobutyl}acetonitrile], for which the IC50 in test [4] is less than 10 nM. Moreover, the JAK2/JAK1 at JAK2 (a.a. 828-1132) was more than 10.
The corresponding values for `C[C@@H](O)CNCc1cc(OC2CCN([C@H]3C[C@](CC#N)(n4cc(-c5ncnc6[nH]ccc56)cn4)C3)CC2)nc(C(F)(F)F)c1` [Compound 24, {trans-3-(4-{[4-({[(2R)-2-hydroxypropyl]amino}methyl)-6-(trifluoromethyl)pyridin-2-yl]oxy}piperidin-1-yl)-1-[4-(7H-pyrrolo[2,3-d]pyrimidin-4-yl)-1H-pyrazol-1-yl]cyclobutyl}acetonitrile] are less than 10 nM and more than 10.
The corresponding values for `C[C@H](O)CNCc1cc(OC2CCN([C@H]3C[C@](CC#N)(n4cc(-c5ncnc6[nH]ccc56)cn4)C3)CC2)nc(C(F)(F)F)c1` [Compound 25, {trans-3-(4-{[4-({[(2S)-2-hydroxypropyl]amino}methyl)-6-(trifluoromethyl)pyridin-2-yl]oxy}piperidin-1-yl)-1-[4-(7H-pyrrolo[2,3-d]pyrimidin-4-yl)-1H-pyrazol-1-yl]cyclobutyl}acetonitrile] are less than 10 nM and more than 10.
The corresponding values for `N#CC[C@]1(n2cc(-c3ncnc4[nH]ccc34)cn2)C[C@H](N2CCC(Oc3cc(CCO)cc(C(F)(F)F)n3)CC2)C1` [Compound 26, {trans-3-(4-{[4-(2-hydroxyethyl)-6-(trifluoromethyl)pyridin-2-yl]oxy}piperidin-1-yl)-1-[4-(7H-pyrrolo[2,3-d]pyrimidin-4-yl)-1H-pyrazol-1-yl]cyclobutyl}acetonitrile] are less than 10 nM and more than 10.

By IC50 is commonly meant the midpoint of a concentration-inhibition curve. Read a high IC50 as lower potency.

Source of the values: patent US20240307353A1, “JAK1 PATHWAY INHIBITORS FOR THE TREATMENT OF ASTHMA” (Incyte Corporation, priority 2023, published 2024).
